These molecules were tested against Nav 1.7 (Homo sapiens (Human), UniProt Q15858) (assay: in-vitro Nav 1.7 PX (IC50)). Settings: not given.
Sequence of Nav 1.7 (Q15858 whole entry): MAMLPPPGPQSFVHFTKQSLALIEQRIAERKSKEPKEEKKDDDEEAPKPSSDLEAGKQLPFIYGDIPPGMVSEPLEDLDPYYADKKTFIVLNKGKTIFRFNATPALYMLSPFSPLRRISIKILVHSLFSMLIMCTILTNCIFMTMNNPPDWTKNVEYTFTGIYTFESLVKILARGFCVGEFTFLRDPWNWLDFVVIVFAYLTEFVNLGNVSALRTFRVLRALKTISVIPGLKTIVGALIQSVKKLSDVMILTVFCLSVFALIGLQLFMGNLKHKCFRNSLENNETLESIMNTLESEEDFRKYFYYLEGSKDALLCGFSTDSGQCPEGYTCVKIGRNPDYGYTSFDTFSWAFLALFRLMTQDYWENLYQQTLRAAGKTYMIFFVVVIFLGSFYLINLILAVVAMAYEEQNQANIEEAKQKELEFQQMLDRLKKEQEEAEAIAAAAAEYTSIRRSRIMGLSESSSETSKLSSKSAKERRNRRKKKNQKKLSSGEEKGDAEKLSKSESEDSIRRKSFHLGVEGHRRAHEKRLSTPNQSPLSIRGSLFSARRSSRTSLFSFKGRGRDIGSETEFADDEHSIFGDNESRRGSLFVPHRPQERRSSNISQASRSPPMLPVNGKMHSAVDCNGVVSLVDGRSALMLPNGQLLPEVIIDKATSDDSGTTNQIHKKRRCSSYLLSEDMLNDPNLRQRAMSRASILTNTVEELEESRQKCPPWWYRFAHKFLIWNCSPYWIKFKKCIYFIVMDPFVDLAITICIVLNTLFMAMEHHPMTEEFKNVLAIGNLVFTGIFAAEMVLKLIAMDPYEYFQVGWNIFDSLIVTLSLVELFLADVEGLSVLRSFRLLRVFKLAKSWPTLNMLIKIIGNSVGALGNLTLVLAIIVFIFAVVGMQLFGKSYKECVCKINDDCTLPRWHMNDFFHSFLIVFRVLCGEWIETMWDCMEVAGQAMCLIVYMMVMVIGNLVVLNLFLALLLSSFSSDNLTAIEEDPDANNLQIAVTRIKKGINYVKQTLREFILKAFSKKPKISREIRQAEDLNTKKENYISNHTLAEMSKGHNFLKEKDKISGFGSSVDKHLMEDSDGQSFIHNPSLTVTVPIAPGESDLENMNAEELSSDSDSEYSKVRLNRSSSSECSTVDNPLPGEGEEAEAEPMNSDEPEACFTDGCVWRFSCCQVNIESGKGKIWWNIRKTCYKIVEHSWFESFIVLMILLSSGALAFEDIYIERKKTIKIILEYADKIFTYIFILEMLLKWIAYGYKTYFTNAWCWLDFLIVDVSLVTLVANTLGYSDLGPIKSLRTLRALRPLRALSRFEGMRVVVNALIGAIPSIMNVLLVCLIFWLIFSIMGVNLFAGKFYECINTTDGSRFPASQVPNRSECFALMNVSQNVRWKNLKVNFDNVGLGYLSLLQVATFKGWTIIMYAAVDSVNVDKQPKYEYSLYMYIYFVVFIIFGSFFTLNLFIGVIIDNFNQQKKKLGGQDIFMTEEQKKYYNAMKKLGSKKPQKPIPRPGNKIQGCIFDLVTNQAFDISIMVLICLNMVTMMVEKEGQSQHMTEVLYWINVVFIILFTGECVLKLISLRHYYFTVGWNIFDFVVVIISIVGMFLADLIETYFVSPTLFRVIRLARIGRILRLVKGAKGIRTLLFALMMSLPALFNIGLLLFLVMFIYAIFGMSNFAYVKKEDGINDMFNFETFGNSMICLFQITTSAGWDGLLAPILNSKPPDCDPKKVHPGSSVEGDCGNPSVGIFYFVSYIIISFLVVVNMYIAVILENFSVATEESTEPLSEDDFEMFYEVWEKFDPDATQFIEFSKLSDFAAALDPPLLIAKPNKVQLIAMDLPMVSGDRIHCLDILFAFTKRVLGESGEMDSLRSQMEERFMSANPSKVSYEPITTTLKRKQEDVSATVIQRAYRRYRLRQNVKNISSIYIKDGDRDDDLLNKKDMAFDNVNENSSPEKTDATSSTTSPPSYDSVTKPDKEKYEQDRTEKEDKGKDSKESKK
Assay type: cell-based
In the case of `COc1cc(-c2cc(F)cc(Cl)c2)c(F)cc1-n1c(=O)ccc2cc(S(=O)(=O)Nc3cnccn3)ccc21` (atropisomer, axis not shown; (P)) [Example 543, (P)-1-(3′-chloro-2,5′-difluoro-5-methoxy-4-biphenylyl)-2-oxo-N-2-pyrazinyl-1,2-dihydro-6-quinolinesulfonamide], the IC50 is reported as 0.013 µM. With `COc1cc(-c2cc(F)cnc2OC)c(C)cc1-n1c(=O)ccc2cc(S(=O)(=O)Nc3ccon3)ccc21` (atropisomer, axis not shown; (P)) [Example 426, (P)-1-(4-(5-fluoro-2-methoxy-3-pyridinyl)-2-methoxy-5-methylphenyl)-N-3-isoxazolyl-2-oxo-1,2-dihydro-6-quinolinesulfonamide] the IC50 was 0.063 µM. Molecule `COc1ccc(-c2cccc(C(F)(F)F)c2)cc1-n1c(=O)ccc2cc(S(=O)(=O)Nc3ccon3)ccc21` (atropisomer, axis not shown; (P)) [Example 381, (P)—N-3-isoxazolyl-1-(4-methoxy-3′-(trifluoromethyl)-3-biphenylyl)-2-oxo-1,2-dihydro-6-quinolinesulfonamide] has an IC50 of 0.015 µM. `O=c1ccc2cc(S(=O)(=O)Nc3ccon3)ccc2n1-c1ccc(C(F)(F)F)cc1-c1cn[nH]c1` [Example 346, P-1-(2-(1H-pyrazol-4-yl)-4-(trifluoromethyl)phenyl)-N-(isoxazol-3-yl)-2-oxo-1,2-dihydroquinoline-6-sulfonamide] showed an IC50 of 0.648 µM. `CCOc1cc(-c2cccc(F)c2)c(F)cc1-n1c(=O)ccc2cc(S(=O)(=O)Nc3ccon3)ccc21` (atropisomer, axis not shown; (P)) [Example 388, (P)-1-(5-ethoxy-2,3′-difluoro-[1,1′-biphenyl]-4-yl)-N-(isoxazol-3-yl)-2-oxo-1,2-dihydroquinoline-6-sulfonamide] was tested, and the IC50 was 0.048 µM. `COc1cc(-c2ccc(F)c(C)c2)c(F)cc1-n1c(=O)cnc2cc(S(=O)(=O)Nc3ccon3)ccc21` [Example 1194, 1-(2,4′-difluoro-5-methoxy-3′-methyl-4-biphenylyl)-N-3-isoxazolyl-2-oxo-1,2-dihydro-6-quinoxalinesulfonamide] was tested, and the IC50 was 0.056 µM. `COc1cc(-c2cccc(C(F)(F)F)c2)ccc1-n1c(=O)cnc2cc(S(=O)(=O)Nc3ncccn3)ccc21` [Example 1200, 1-(3-methoxy-3′-(trifluoromethyl)-4-biphenylyl)-2-oxo-N-2-pyrimidinyl-1,2-dihydro-6-quinoxalinesulfonamide] gave an IC50 of 0.078 µM.

Same assay, conditions: in-vitro Nav 1.7 PX data
`COc1cc([C@H]2CC[C@@H](OC)CC2)c(F)cc1-n1c(=O)ccc2cc(S(=O)(=O)Nc3ccon3)ccc21` [Example 1086, 1-(5-fluoro-2-methoxy-4-(cis-4-methoxycyclohexyl)phenyl)-N-3-isoxazolyl-2-oxo-1,2-dihydro-6-quinolinesulfonamide, 1-(5-fluoro-2-methoxy-4-(trans-4-methoxycyclohexyl)phenyl)-N-3-isoxazolyl-2-oxo-1,2-dihydro-6-quinolinesulfonamide] was tested, and the IC50 was 3.91 µM. Molecule `COc1cc(-c2cc(OC)c(-n3c(=O)ccc4cc(S(=O)(=O)Nc5ncccn5)ccc43)cc2C)ccc1F` [Example 960, 1-(4′-fluoro-3′,5-dimethoxy-2-methyl-4-biphenylyl)-2-oxo-N-2-pyrimidinyl-1,2-dihydro-6-quinolinesulfonamide] has an IC50 of 0.036 µM. In the case of `COc1cc(-c2cccc(OC)c2Cl)ccc1-n1c(=O)ccc2cc(S(=O)(=O)Nc3ccon3)ccc21` [Example 782, 1-(2′-chloro-3,3′-dimethoxy-4-biphenylyl)-N-3-isoxazolyl-2-oxo-1,2-dihydro-6-quinolinesulfonamide], the IC50 is reported as 0.087 µM. For `COc1cc(-c2ccc(Cl)cc2)ccc1-n1c(=O)ccc2cc(S(=O)(=O)Nc3cccnn3)ccc21` [Example 765, 1-(4′-chloro-3-methoxy-4-biphenylyl)-2-oxo-N-3-pyridazinyl-1,2-dihydro-6-quinolinesulfonamide], the IC50 was 0.112 µM. `COc1ccc(C2CCOCC2)cc1-n1c(=O)ccc2cc(S(=O)(=O)Nc3ccon3)ccc21` [Example 620, N-3-isoxazolyl-1-(2-methoxy-5-(tetrahydro-2H-pyran-4-yl)phenyl)-2-oxo-1,2-dihydro-6-quinolinesulfonamide] showed an IC50 of 8.1 µM. `COc1cc(-c2cc(F)cc(Cl)c2)c(F)cc1-n1c(=O)ccc2cc(S(=O)(=O)Nc3ccnc(C)n3)ccc21` [Example 934, 1-(3′-chloro-2,5′-difluoro-5-methoxy-4-biphenylyl)-N-(2-methyl-4-pyrimidinyl)-2-oxo-1,2-dihydro-6-quinolinesulfonamide] gave an IC50 of 0.006 µM. For `COc1cccc(-c2cc(OC)c(-n3c(=O)ccc4cc(S(=O)(=O)Nc5ccon5)ccc43)cc2F)c1` [Example 709, 1-(2-fluoro-3′,5-dimethoxy-4-biphenylyl)-N-3-isoxazolyl-2-oxo-1,2-dihydro-6-quinolinesulfonamide], the IC50 was 0.047 µM. `COc1cc(-c2ccc(Cl)cc2)c(F)cc1-n1c(=O)ccc2cc(S(=O)(=O)Nc3ccnc(C)n3)ccc21` [Example 751, 1-(4′-chloro-2-fluoro-5-methoxy-4-biphenylyl)-N-(2-methyl-4-pyrimidinyl)-2-oxo-1,2-dihydro-6-quinolinesulfonamide] gave an IC50 of 0.067 µM. `COc1ccc(-c2cc(F)cc(Cl)c2)cc1-n1c(=O)ccc2cc(S(=O)(=O)Nc3ccncn3)ccc21` (atropisomer, axis not shown; (P)) [Example 611, (P)-1-(3′-chloro-5′-fluoro-4-methoxy-3-biphenylyl)-2-oxo-N-4-pyrimidinyl-1,2-dihydro-6-quinolinesulfonamide] gave an IC50 of 0.029 µM. `COc1cc(-c2ccnc(OC)c2Cl)c(F)cc1-n1c(=O)ccc2cc(S(=O)(=O)Nc3ccon3)ccc21` [Example 745, 1-(4-(3-chloro-2-methoxy-4-pyridinyl)-5-fluoro-2-methoxyphenyl)-N-3-isoxazolyl-2-oxo-1,2-dihydro-6-quinolinesulfonamide] showed an IC50 of 0.051 µM. `COc1cc(-c2ccccn2)c(F)cc1-n1c(=O)ccc2cc(S(=O)(=O)Nc3ccon3)ccc21` [Example 594, 1-(5-fluoro-2-methoxy-4-(2-pyridinyl)phenyl)-N-3-isoxazolyl-2-oxo-1,2-dihydro-6-quinolinesulfonamide] was tested, and the IC50 was 1.66 µM. Molecule `COc1nc(-c2cc(F)cc(F)c2)c(Cl)cc1-n1c(=O)ccc2cc(S(=O)(=O)Nc3ncccn3)ccc21` [Example 1080, 1-(5-chloro-6-(3,5-difluorophenyl)-2-methoxy-3-pyridinyl)-2-oxo-N-2-pyrimidinyl-1,2-dihydro-6-quinolinesulfonamide] has an IC50 of 0.021 µM. `COc1nc(-c2cc(F)cc(F)c2)c(Cl)cc1-n1c(=O)ccc2cc(S(=O)(=O)Nc3ccon3)ccc21` (atropisomer, axis not shown; (P)) [Example 665, (P)-1-(5-chloro-6-(3,5-difluorophenyl)-2-methoxy-3-pyridinyl)-N-3-isoxazolyl-2-oxo-1,2-dihydro-6-quinolinesulfonamide] showed an IC50 of 0.015 µM. With `COc1cc(-c2ccc(C(F)(F)F)cc2)c(F)cc1-n1c(=O)ccc2cc(S(=O)(=O)Nc3ccnc(C)n3)ccc21` [Example 799, 1-(2-fluoro-5-methoxy-4′-(trifluoromethyl)-4-biphenylyl)-N-(2-methyl-4-pyrimidinyl)-2-oxo-1,2-dihydro-6-quinolinesulfonamide] the IC50 was 0.059 µM. For `COc1cc(-c2ccc(C(F)(F)F)cc2)c(F)cc1-n1c(=O)ccc2cc(S(=O)(=O)Nc3ncc(F)cn3)ccc21` [Example 796, 1-(2-fluoro-5-methoxy-4′-(trifluoromethyl)-4-biphenylyl)-N-(5-fluoro-2-pyrimidinyl)-2-oxo-1,2-dihydro-6-quinolinesulfonamide], the IC50 was 0.033 µM. `COc1cc(C[C@H]2CCCCO2)c(F)cc1-n1c(=O)ccc2cc(S(=O)(=O)Nc3ccon3)ccc21` [Example 1133, 1-(5-fluoro-2-methoxy-4-((2R)-tetrahydro-2H-pyran-2-ylmethyl)phenyl)-N-3-isoxazolyl-2-oxo-1,2-dihydro-6-quinolinesulfonamide, 1-(5-fluoro-2-methoxy-4-((2S)-tetrahydro-2H-pyran-2-ylmethyl)phenyl)-N-3-isoxazolyl-2-oxo-1,2-dihydro-6-quinolinesulfonamide] gave an IC50 of 2.26 µM. `COc1cc(-c2ccnc(C(F)(F)F)c2)c(F)cc1-n1c(=O)ccc2cc(S(=O)(=O)Nc3ccon3)ccc21` [Example 762, 1-(5-fluoro-2-methoxy-4-(2-(trifluoromethyl)-4-pyridinyl)phenyl)-N-3-isoxazolyl-2-oxo-1,2-dihydro-6-quinolinesulfonamide] showed an IC50 of 0.041 µM. `COc1cc(F)cc(-c2ccc(-n3c(=O)ccc4cc(S(=O)(=O)Nc5ccnc(C)n5)ccc43)c(OC)c2)c1` [Example 1003, 1-(3′-fluoro-3,5′-dimethoxy-4-biphenylyl)-N-(2-methyl-4-pyrimidinyl)-2-oxo-1,2-dihydro-6-quinolinesulfonamide] gave an IC50 of 1.26 µM. For `COc1cc(-c2cccc(C)c2)c(F)cc1-n1c(=O)ccc2cc(S(=O)(=O)Nc3cccnn3)ccc21` [Example 1108, 1-(2-fluoro-5-methoxy-3′-methyl-4-biphenylyl)-2-oxo-N-3-pyridazinyl-1,2-dihydro-6-quinolinesulfonamide], the IC50 was 0.021 µM. `COc1cc(-c2cccc(C(F)(F)F)c2)ccc1-n1c(=O)ccc2cc(S(=O)(=O)Nc3cc(C)cnn3)ccc21` [Example 1137, 1-(3-methoxy-3′-(trifluoromethyl)-4-biphenylyl)-N-(5-methyl-3-pyridazinyl)-2-oxo-1,2-dihydro-6-quinolinesulfonamide] showed an IC50 of 0.036 µM.

Same assay, conditions: in-vitro Nav 1.7 PX data, Table 4
`COc1cc(-c2cnc(OC)c(Cl)c2)c(F)cc1-n1c(=O)ccc2cc(S(=O)(=O)Nc3cc(C)ncn3)ccc21` (atropisomer, axis not shown; (P)) [Example 1159, (P)-1-(4-(5-chloro-6-methoxy-3-pyridinyl)-5-fluoro-2-methoxyphenyl)-N-(6-methyl-4-pyrimidinyl)-2-oxo-1,2-dihydro-6-quinolinesulfonamide] gave an IC50 of 0.051 µM. `COc1cc(-c2cnc(OC)c(Cl)c2)c(F)cc1-n1c(=O)ccc2cc(S(=O)(=O)Nc3ccnc(C)n3)ccc21` (atropisomer, axis not shown; (P)) [Example 1160, (P)-1-(4-(5-chloro-6-methoxy-3-pyridinyl)-5-fluoro-2-methoxyphenyl)-N-(2-methyl-4-pyrimidinyl)-2-oxo-1,2-dihydro-6-quinolinesulfonamide] was tested, and the IC50 was 0.042 µM.

From US9212182B2, “Bicyclic sulfonamide compounds as sodium channel inhibitors” (AMGEN INC., priority 2013, dated 2015)
